Source: patent US20030224992A1, “Transcription factor modulators and uses thereof” (Praecis Pharmaceuticals Inc., priority 2002, published 2003)

Tested on: androgen responsive gene, kallikrein 3 (PSA II transcripts) in LNCaP cells
Assay: Down-regulation of androgen receptor responsive gene expression by ARE (real time PCR)
Assay type: cell-based
Details: electroporation, 1, 5 or 20 μM, 10 nM DHT, 4 hours

Q: Which “steady state levels of PSA II transcripts normalized to actin (DHT induction)” value does the source give for “5′-AGTCTACGAGTGGGGTTCTTTTTTA-3′ (SEQ ID NO: 24) (DNA AGTCTACGAGTGGGGTTCTTTTTTA; chemistry not given here) [scrambled ARE]” here?
A: this was not observed
